From ChEMBL document CHEMBL5649169 (ChemMedChem, 2018)

Key:
[1] = molecular target: DnaJ homolog subfamily C member 9 (Homo sapiens) (UniProt Q8WXX5); note: assay method not described here
[2] = molecular target: Nucleosome assembly protein 1-like 4 (Homo sapiens) (UniProt Q99733); note: assay method not described here
Macoilin (Homo sapiens) = Macoilin (Homo sapiens) (UniProt Q8N5G2); note: assay method not described here
[3] = molecular target: Tubulin beta-4A chain (Homo sapiens) (UniProt P04350); note: assay method not described here
Homo sapiens [4] = species on record: Homo sapiens; note: assay method not described here
[5] = molecular target: Serine/arginine-rich splicing factor 9 (Homo sapiens) (UniProt Q13242); note: assay method not described here
[6] = molecular target: Stearoyl-CoA desaturase (Homo sapiens) (UniProt O00767); note: assay method not described here
[7] = molecular target: Ribosomal protein S6 kinase beta-1 (Homo sapiens) (UniProt P23443); note: assay method not described here
[8] = molecular target: Presenilin-associated rhomboid-like protein, mitochondrial (Homo sapiens) (UniProt Q9H300); note: assay method not described here
[9] = molecular target: Parathymosin (Homo sapiens) (UniProt P20962); note: assay method not described here
[10] = molecular target: Lysosomal alpha-mannosidase (Homo sapiens) (UniProt O00754); note: assay method not described here
[11] = molecular target: Ragulator complex protein LAMTOR3 (Homo sapiens) (UniProt Q9UHA4); note: assay method not described here
[12] = molecular target: DNA polymerase delta subunit 3 (Homo sapiens) (UniProt Q15054); note: assay method not described here
[13] = molecular target: Zinc finger CCHC domain-containing protein 8 (Homo sapiens) (UniProt Q6NZY4); note: assay method not described here
[14] = molecular target: Splicing factor 3B subunit 2 (Homo sapiens) (UniProt Q13435); note: assay method not described here
[15] = molecular target: Lysine-specific histone demethylase 1A (Homo sapiens) (UniProt O60341); note: assay method not described here
[16] = molecular target: Cell growth-regulating nucleolar protein (Homo sapiens) (UniProt Q9NX58); note: assay method not described here
[17] = molecular target: Putative protein-lysine deacylase ABHD14B (Homo sapiens) (UniProt Q96IU4); note: assay method not described here
[18] = molecular target: Small nuclear ribonucleoprotein F (Homo sapiens) (UniProt P62306); note: assay method not described here
[19] = molecular target: WASH complex subunit 4 (Homo sapiens) (UniProt Q2M389); note: assay method not described here
[20] = molecular target: Zinc finger protein with KRAB and SCAN domains 2 (Homo sapiens) (UniProt Q63HK3); note: assay method not described here
[21] = molecular target: Macrophage-stimulating protein receptor (Homo sapiens) (UniProt Q04912); note: assay method not described here
[22] = molecular target: ALK tyrosine kinase receptor (Homo sapiens) (UniProt Q9UM73); note: assay method not described here
[23] = molecular target: Signal recognition particle receptor subunit alpha (Homo sapiens) (UniProt P08240); note: assay method not described here
[24] = molecular target: Large ribosomal subunit protein bL9m (Homo sapiens) (UniProt Q9BYD2); note: assay method not described here
[25] = molecular target: Paired amphipathic helix protein Sin3a (Homo sapiens) (UniProt Q96ST3); note: assay method not described here
[26] = molecular target: Mitochondrial import inner membrane translocase subunit Tim10 (Homo sapiens) (UniProt P62072); note: assay method not described here
Rootletin (Homo sapiens) = Rootletin (Homo sapiens) (UniProt Q5TZA2); note: assay method not described here
[27] = molecular target: EKC/KEOPS complex subunit LAGE3 (Homo sapiens) (UniProt Q14657); note: assay method not described here
[28] = molecular target: AP-3 complex subunit delta-1 (Homo sapiens) (UniProt O14617); note: assay method not described here
[29] = molecular target: Pleckstrin homology domain-containing family G member 3 (Homo sapiens) (UniProt A1L390); note: assay method not described here
Homo sapiens [30] = species on record: Homo sapiens; remark: listed apart in the source; note: assay method not described here
[31] = molecular target: Translocon-associated protein subunit delta (Homo sapiens) (UniProt P51571); note: assay method not described here
[32] = molecular target: Dolichyl-diphosphooligosaccharide--protein glycosyltransferase subunit STT3B (Homo sapiens) (UniProt Q8TCJ2); note: assay method not described here
[33] = molecular target: Nuclear factor NF-kappa-B p105 subunit (Homo sapiens) (UniProt P19838); note: assay method not described here
[34] = molecular target: Trifunctional purine biosynthetic protein adenosine-3 (Homo sapiens) (UniProt P22102); note: assay method not described here
[35] = molecular target: Heterogeneous nuclear ribonucleoprotein R (Homo sapiens) (UniProt O43390); note: assay method not described here
[36] = molecular target: Citrate synthase, mitochondrial (Homo sapiens) (UniProt O75390); note: assay method not described here
[37] = molecular target: ATP synthase peripheral stalk subunit OSCP, mitochondrial (Homo sapiens) (UniProt P48047); note: assay method not described here
[38] = molecular target: Phosphopentomutase (Homo sapiens) (UniProt Q96G03); note: assay method not described here
[39] = molecular target: Exportin-1 (Homo sapiens) (UniProt O14980); note: assay method not described here
[40] = molecular target: 10 kDa heat shock protein, mitochondrial (Homo sapiens) (UniProt P61604); note: assay method not described here
Ephrin type-A receptor 2 = Ephrin type-A receptor 2 (Homo sapiens, UniProt P29317); assay: Inhibition of Nano Luc-fused full length C-terminal EPHA2 (unknown origin) expressed in HEK293T cells using NanoGlo as substrate incubated for 2 hrs in presence of tracer by NanoBRET assay; type: cell-based
[41] = molecular target: Brefeldin A-inhibited guanine nucleotide-exchange protein 1 (Homo sapiens) (UniProt Q9Y6D6); note: assay method not described here
Homo sapiens [42] = species on record: Homo sapiens; remark: listed apart in the source; note: assay method not described here
[43] = molecular target: Histone H1.2 (Homo sapiens) (UniProt P16403); note: assay method not described here

Sequence of ALK tyrosine kinase receptor (Homo sapiens) (Q9UM73 19-1620 limits assumed): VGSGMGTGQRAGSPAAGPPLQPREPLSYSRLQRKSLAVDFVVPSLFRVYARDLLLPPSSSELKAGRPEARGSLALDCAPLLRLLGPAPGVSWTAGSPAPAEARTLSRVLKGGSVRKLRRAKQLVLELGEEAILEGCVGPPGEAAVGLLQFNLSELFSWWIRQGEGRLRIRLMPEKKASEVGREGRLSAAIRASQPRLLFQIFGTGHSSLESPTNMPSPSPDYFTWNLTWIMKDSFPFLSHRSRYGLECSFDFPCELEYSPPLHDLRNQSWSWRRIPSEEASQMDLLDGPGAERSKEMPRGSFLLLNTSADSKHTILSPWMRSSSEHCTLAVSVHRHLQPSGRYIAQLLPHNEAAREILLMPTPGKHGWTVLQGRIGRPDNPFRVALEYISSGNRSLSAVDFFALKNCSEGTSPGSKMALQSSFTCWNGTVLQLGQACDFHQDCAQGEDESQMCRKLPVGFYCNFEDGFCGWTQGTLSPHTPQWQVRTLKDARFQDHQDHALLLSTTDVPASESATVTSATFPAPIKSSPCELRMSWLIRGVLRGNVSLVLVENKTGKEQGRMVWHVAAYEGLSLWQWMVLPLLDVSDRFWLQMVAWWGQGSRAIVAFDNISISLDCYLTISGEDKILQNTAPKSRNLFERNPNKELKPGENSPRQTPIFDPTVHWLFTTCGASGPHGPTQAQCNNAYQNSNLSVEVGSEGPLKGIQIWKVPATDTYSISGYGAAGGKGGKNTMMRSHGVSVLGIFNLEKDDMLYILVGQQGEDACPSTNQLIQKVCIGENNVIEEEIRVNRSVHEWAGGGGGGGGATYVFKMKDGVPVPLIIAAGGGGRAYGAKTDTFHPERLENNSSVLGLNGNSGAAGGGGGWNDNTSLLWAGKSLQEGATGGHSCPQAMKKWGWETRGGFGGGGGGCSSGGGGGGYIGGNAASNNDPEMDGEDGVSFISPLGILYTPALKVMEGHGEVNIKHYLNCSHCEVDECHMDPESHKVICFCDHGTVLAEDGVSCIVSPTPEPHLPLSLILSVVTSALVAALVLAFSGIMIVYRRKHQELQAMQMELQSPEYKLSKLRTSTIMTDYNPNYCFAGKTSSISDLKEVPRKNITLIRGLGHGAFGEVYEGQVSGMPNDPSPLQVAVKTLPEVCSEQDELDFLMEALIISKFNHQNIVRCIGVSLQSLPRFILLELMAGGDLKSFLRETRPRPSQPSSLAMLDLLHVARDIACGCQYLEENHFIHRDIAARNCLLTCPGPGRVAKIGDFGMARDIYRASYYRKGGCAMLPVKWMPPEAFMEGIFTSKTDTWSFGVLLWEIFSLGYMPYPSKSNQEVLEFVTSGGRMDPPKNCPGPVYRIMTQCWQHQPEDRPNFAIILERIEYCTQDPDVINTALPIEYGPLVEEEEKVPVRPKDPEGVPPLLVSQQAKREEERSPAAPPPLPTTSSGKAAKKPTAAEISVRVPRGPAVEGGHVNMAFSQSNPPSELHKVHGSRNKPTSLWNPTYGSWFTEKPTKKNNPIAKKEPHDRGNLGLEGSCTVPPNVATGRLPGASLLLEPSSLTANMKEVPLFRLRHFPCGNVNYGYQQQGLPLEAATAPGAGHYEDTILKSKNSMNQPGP
Sequence of Mitochondrial import inner membrane translocase subunit Tim10 (Homo sapiens) (P62072 whole entry): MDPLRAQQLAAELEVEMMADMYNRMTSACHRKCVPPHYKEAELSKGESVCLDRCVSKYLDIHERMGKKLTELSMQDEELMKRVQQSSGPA
Sequence of Pleckstrin homology domain-containing family G member 3 (Homo sapiens) (A1L390 whole entry, the tested form may be a part): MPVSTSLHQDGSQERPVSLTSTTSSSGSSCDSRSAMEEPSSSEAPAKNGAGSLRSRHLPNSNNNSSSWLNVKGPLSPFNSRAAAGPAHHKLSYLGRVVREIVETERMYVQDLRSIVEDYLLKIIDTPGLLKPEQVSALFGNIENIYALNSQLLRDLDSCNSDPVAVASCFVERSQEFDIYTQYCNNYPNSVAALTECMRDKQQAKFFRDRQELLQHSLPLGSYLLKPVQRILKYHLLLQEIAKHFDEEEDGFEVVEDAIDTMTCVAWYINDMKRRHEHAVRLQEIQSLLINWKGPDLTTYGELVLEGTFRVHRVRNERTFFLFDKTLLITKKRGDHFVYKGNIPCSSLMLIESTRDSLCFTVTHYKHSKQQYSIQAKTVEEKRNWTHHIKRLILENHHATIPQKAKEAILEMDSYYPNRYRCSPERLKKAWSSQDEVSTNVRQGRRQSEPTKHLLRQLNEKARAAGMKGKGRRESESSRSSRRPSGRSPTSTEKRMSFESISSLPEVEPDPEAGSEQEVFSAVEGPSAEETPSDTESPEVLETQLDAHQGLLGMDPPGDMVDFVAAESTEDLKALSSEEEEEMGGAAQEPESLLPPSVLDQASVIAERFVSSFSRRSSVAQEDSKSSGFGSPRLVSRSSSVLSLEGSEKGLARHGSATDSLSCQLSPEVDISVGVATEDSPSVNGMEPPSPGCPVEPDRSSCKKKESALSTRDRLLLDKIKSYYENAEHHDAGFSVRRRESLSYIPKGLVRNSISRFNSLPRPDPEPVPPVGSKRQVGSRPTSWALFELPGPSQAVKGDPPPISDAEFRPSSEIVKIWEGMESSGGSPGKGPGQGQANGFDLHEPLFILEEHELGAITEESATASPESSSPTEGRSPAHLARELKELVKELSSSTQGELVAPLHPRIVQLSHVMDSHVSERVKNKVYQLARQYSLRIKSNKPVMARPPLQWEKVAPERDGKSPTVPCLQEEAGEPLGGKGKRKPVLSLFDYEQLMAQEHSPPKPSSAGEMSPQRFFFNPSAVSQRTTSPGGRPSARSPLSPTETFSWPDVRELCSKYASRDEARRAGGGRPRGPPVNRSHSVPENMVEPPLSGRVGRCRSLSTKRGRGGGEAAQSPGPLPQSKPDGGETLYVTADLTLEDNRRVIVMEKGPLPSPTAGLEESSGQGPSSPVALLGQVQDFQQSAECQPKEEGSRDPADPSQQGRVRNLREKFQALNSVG
Sequence of Ragulator complex protein LAMTOR3 (Homo sapiens) (Q9UHA4 whole entry, one chain of several): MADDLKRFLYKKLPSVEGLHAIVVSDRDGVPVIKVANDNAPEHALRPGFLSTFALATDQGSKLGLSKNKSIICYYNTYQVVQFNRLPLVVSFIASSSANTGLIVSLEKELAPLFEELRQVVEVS
Sequence of Nucleosome assembly protein 1-like 4 (Homo sapiens) (Q99733 whole entry): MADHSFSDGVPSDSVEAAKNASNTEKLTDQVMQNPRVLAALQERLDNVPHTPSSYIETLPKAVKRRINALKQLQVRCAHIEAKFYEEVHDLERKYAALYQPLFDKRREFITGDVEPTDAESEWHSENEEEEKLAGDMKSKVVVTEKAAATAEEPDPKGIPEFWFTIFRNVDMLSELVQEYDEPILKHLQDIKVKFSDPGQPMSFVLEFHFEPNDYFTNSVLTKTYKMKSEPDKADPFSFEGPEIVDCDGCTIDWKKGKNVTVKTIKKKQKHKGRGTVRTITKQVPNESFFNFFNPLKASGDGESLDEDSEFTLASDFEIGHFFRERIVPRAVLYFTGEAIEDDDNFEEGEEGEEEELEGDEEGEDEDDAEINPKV
Sequence of Small nuclear ribonucleoprotein F (Homo sapiens) (P62306 2-86 limits assumed): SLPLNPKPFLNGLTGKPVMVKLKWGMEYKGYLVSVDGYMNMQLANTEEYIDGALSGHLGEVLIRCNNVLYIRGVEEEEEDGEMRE
Sequence of ATP synthase peripheral stalk subunit OSCP, mitochondrial (Homo sapiens) (P48047 whole entry): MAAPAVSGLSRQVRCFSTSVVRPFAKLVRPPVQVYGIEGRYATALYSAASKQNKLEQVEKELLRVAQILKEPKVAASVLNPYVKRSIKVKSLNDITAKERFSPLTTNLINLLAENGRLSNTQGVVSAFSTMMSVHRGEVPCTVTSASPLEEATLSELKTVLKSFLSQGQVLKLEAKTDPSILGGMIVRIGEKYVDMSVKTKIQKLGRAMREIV
Sequence of Serine/arginine-rich splicing factor 9 (Homo sapiens) (Q13242 whole entry): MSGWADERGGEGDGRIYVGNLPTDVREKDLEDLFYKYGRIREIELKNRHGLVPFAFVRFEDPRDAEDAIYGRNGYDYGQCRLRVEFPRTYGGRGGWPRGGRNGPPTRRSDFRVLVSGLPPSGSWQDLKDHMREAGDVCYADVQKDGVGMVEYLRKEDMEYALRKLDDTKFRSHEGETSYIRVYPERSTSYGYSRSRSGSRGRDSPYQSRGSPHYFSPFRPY
Sequence of Translocon-associated protein subunit delta (Homo sapiens) (P51571 whole entry): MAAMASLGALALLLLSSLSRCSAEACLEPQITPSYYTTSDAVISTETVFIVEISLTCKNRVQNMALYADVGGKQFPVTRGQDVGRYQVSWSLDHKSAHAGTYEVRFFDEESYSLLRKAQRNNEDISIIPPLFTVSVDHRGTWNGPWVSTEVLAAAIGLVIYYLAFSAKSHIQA
Sequence of Signal recognition particle receptor subunit alpha (Homo sapiens) (P08240 whole entry): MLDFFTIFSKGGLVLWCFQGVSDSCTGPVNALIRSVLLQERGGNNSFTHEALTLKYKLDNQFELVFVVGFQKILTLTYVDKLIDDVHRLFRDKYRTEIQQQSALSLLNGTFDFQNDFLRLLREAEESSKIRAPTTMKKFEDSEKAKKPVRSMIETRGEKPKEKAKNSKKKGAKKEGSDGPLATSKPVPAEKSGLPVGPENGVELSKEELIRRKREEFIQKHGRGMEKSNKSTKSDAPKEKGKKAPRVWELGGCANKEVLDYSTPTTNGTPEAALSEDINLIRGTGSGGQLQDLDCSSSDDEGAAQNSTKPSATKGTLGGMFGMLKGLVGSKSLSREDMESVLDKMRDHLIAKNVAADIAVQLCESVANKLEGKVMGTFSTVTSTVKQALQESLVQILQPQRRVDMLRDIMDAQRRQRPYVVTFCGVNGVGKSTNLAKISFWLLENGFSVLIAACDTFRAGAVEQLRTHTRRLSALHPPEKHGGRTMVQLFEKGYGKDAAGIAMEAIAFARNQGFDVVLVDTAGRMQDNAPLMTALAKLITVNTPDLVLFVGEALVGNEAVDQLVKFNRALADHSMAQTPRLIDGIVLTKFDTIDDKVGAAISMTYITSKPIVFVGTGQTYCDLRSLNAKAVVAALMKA
Sequence of Putative protein-lysine deacylase ABHD14B (Homo sapiens) (Q96IU4 whole entry): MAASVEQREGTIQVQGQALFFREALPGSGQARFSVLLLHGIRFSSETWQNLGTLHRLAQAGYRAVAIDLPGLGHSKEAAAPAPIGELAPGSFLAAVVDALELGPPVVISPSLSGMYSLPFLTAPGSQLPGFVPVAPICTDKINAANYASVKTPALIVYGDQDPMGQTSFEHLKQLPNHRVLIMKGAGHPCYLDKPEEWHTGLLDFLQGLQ

`Cc1ccc(C(=O)Nc2cccc(C(F)(F)F)c2)cc1Nc1nc(-c2cccnc2)nc2c1cnn2C` gave an ED50 [1] of 8.8 µM, an ED50 [2] of 9.2 µM and an ED50 (Macoilin (Homo sapiens)) of 0.092 µM. The ED50 [3] was 0.00634 µM, the ED50 (Homo sapiens [4]) was 5.28 µM and the ED50 [5] was 0.0124 µM. For the same compound, the ED50 [6] was 0.00465 µM, the ED50 [7] was 17.6 µM and the ED50 [8] was 0.00451 µM. For the same compound, the ED50 [9] was 0.0394 µM, the ED50 [10] was 83 µM and the ED50 [11] was 0.816 µM. The ED50 [12] was 0.00157 µM, the ED50 [13] was 16.9 µM and the ED50 [14] was 0.00691 µM. The ED50 [15] was 0.000417 µM, the ED50 [16] was 4.37 µM and the ED50 [17] was 5470 µM. It also gave an ED50 [18] of 143 µM, an ED50 [19] of 0.0229 µM and an ED50 [20] of 0.932 µM. The ED50 [21] was 0.0911 µM, the ED50 [22] was 0.00143 µM and the ED50 [23] was 39.4 µM. For the same compound, the ED50 [24] was 9.58 µM, the ED50 [25] was 47.7 µM and the ED50 [26] was 0.0279 µM. It also gave an ED50 (Rootletin (Homo sapiens)) of 0.115 µM, an ED50 [27] of 131 µM and an ED50 [28] of 0.00584 µM. The ED50 [29] was 0.00553 µM, the ED50 (Homo sapiens [30]) was 15.7 µM and the ED50 [31] was 217 µM. It also gave an ED50 [32] of 0.626 µM and an ED50 [33] of 0.657 µM.

`Cc1ccc(C(=O)Nc2cccc(C(F)(F)F)c2)cc1Nc1nc(-c2cccnc2)nc2nn(C)cc12` was tested, and the ED50 [34] was 0.136 µM, the ED50 [35] was 0.00823 µM and the ED50 [36] was 62.4 µM. It also gave an ED50 [37] of 0.0206 µM, an ED50 [38] of 149 µM and an ED50 [39] of 4.43 µM. It also gave an ED50 [40] of 0.0765 µM, an IC50 (Ephrin type-A receptor 2) of 0.163 µM and an ED50 [41] of 0.516 µM. The ED50 (Homo sapiens [42]) was 0.00599 µM and the ED50 [43] was 0.00894 µM.
